Legend:
Assay type in all cases: biochemical
PIM-1 = PIM-1 (Homo sapiens, UniProt P11309); assay: Inhibition of PIM-1, standard coupled enzyme assay
Protocol: Reactions were carried out in 100 mM HEPES pH 7.5, 10 mM MgCl2, 25 mM NaCl, 1 mM DTT, 20 μg/ml BSA and 1.5% DMSO. […] Assays were carried out at 30° C. and 50 nM PIM-1.
An assay stock buffer solution was prepared containing all of the reagents listed above, with the exception of PIM-1, DTT, BSA and the test compound of interest. 56 μl of the test reaction was placed in a 384 well plate followed by addition of 1 μl of 2 mM DMSO stock containing the test compound (final compound concentration 30 μM). The plate was preincubated for ˜10 minutes at 30° C. and the reaction initiated by addition of 10 μl of enzyme in DTT and BSA (final concentrations: 50 nM PIM-1, 1 mM DTT, and 20 μg/ml BSA). Rates of reaction were obtained using a BioRad Ultramark plate reader (Hercules, Calif.) over a 5 minute read time at 30° C.

GSK-3β (AA 1-420) = biological target: T1, GSK-3β (AA 1-420) (Homo sapiens, UniProt P49841); assay: Inhibition of GSK-3, standard coupled enzyme system; settings: 20 μM ATP, 300 μM peptide, 20 nM GSK-3β, 30° C.
T1 construct: GSK-3β (AA 1-420)
Protocol: Compounds were screened for their ability to inhibit GSK-3β (AA 1-420) activity using a standard coupled enzyme system (Fox et al. (1998) Protein Sci. 7, 2249). Reactions were carried out in a solution containing 100 mM HEPES (pH 7.5), 10 mM MgCl2, 25 mM NaCl, 300 μM NADH, 1 mM DTT and 1.5% DMSO. Final substrate concentrations in the assay were 20 μM ATP (Sigma Chemicals, St Louis, Mo.) and 300 μM peptide (American Peptide, Sunnyvale, Calif.). Reactions were carried out at 30° C. and 20 nM GSK-3β. Final concentrations of the components of the coupled enzyme system were 2.5 mM phosphoenolpyruvate, 300 μM NADH, 30 μg/ml pyruvate kinase and 10 μg/ml lactate dehydrogenase. An assay stock buffer solution was prepared containing all of the reagents listed above with the exception of ATP and the test compound of interest. The assay stock buffer solution (175 μl) was incubated in a 96 well plate with 5 μl of the test compound of interest at final concentrations spanning 0.002 μM to 30 μM at 30° C. for 10 min. Typically, a 12 point titration was conducted by preparing serial dilutions (from 10 mM compound stocks) with DMSO of the test compounds in daughter plates. The reaction was initiated by the addition of 20 μl of ATP (final concentration 20 μM). Rates of reaction were obtained using a Molecular Devices Spectramax plate reader (Sunnyvale, Calif.) over 10 min at 30° C. The Ki values were determined from the rate data as a function of inhibitor concentration.

human Src kinase = biological target: T2, human Src kinase (Homo sapiens, UniProt P12931); assay: Inhibition of SRC, radioactivity-based assay or spectrophotometric assay; settings: full length recombinant human Src kinase, poly Glu-Tyr substrate; assay A or B not specified
T2 construct: full length recombinant human Src kinase (from Upstate Biotechnology, cat. no. 14-117); purchased Upstate Biotechnology 14-117; host or cells: baculo viral cells (baculovirus expression)
Protocol: The compounds are evaluated as inhibitors of human Src kinase using either a radioactivity-based assay or spectrophotometric assay.
Src Inhibition Assay A: Radioactivity-based Assay
The compounds are assayed as inhibitors of full length recombinant human Src kinase (from Upstate Biotechnology, cat. no. 14-117) expressed and purified from baculo viral cells. Src kinase activity is monitored by following the incorporation of ^33P from ATP into the tyrosine of a random poly Glu-Tyr polymer substrate of composition, Glu:Tyr=4:1 (Sigma, cat. no. P-0275). The following are the final concentrations of the assay components: 0.05 M HEPES, pH 7.6, 10 mM MgCl2, 2 mM DTT, 0.25 mg/ml BSA, 10 μM ATP (1-2 μCi ^33P-ATP per reaction), 5 mg/ml poly Glu-Tyr, and 1-2 units of recombinant human Src kinase. In a typical assay, all the reaction components with the exception of ATP are pre-mixed and aliquoted into assay plate wells. Inhibitors dissolved in DMSO are added to the wells to give a final DMSO concentration of 2.5%. The assay plate is incubated at 30° C. for 10 min before initiating the reaction with ^33P-ATP. After 20 min of reaction, the reactions are quenched with 150 μl of 10% trichloroacetic acid (TCA) containing 20 mM Na3PO4. The quenched samples are then transferred to a 96-well filter plate (Whatman, UNI-Filter GF/F Glass Fiber Filter, cat no. 7700-3310) installed on a filter plate vacuum manifold. Filter plates are washed four times with 10% TCA containing 20 mM Na3PO4 and then 4 times with methanol. 200 μl of scintillation fluid is then added to each well. The plates were sealed and the amount of radioactivity associated with the filters is quantified on a TopCount scintillation counter. The radioactivity incorporated is plotted as a function of the inhibitor concentration. The data is fitted to a competitive inhibition kinetics model to get the Ki for the compound.
Src Inhibition Assay B: Spectrophotometric Assay
The ADP produced from ATP by the human recombinant Src kinase-catalyzed phosphorylation of poly Glu-Tyr substrate is quantified using a coupled enzyme assay (Fox et al (1998) Protein Sci 7, 2249). In this assay one molecule of NADH is oxidised to NAD for every molecule of ADP produced in the kinase reaction. The disappearance of NADH is conveniently followed at 340 nm.
The following are the final concentrations of the assay components: 0.025 M HEPES, pH 7.6, 10 mM MgCl2, 2 mM DTT, 0.25 mg/ml poly Glu-Tyr, and 25 nM of recombinant human Src kinase. […]
In a typical assay, all the reaction components with the exception of ATP are pre-mixed and aliquoted into assay plate wells. […] The absorbance change at 340 nm with time, the rate of the reaction, is monitored on a molecular devices plate reader. […]

CDK-2/Cyclin A = CDK-2/Cyclin A (Homo sapiens, UniProt P24941); assay: Inhibition of CDK-2, standard coupled enzyme assay; settings: 100 μM ATP, 100 μM peptide, 25 nM CDK-2/Cyclin A, 30° C.
Protocol: Compounds were screened for their ability to inhibit CDK-2/Cyclin A using a standard coupled enzyme assay (Fox et al (1998) Protein Sci 7, 2249). Reactions were carried out in 100 mM HEPES pH 7.5, 10 mM MgCl2, 25 mM NaCl, 1 mM DTT and 1.5% DMSO. Final substrate concentrations in the assay were 100 μM ATP (Sigma chemicals) and 100 μM peptide (American Peptide, Sunnyvale, Calif.). Assays were carried out at 30° C. and 25 nM CDK-2/Cyclin A. Final concentrations of the components of the coupled enzyme system were 2.5 mM phosphoenolpyruvate, 350 μM NADH, 30 μg/ml pyruvate kinase and 10 μg/ml lactate dehydrogenase.
An assay stock buffer solution was prepared containing all of the reagents listed above, with the exception of CDK-2/Cyclin A, DTT and the test compound of interest. 56 μl of the test reaction was placed in a 384 well plate followed by addition of 1 μl of 2 mM DMSO stock containing the test compound (final compound concentration 30 μM). The plate was preincubated for ˜10 minutes at 30° C. and the reaction initiated by addition of 10 μl of enzyme (final concentration 25 nM). Rates of reaction were obtained using a BioRad Ultramark plate reader (Hercules, Calif.) over a 5 minute read time at 30° C. Ki values were determined according to standard methods.

T2 sequence (P12931 whole entry): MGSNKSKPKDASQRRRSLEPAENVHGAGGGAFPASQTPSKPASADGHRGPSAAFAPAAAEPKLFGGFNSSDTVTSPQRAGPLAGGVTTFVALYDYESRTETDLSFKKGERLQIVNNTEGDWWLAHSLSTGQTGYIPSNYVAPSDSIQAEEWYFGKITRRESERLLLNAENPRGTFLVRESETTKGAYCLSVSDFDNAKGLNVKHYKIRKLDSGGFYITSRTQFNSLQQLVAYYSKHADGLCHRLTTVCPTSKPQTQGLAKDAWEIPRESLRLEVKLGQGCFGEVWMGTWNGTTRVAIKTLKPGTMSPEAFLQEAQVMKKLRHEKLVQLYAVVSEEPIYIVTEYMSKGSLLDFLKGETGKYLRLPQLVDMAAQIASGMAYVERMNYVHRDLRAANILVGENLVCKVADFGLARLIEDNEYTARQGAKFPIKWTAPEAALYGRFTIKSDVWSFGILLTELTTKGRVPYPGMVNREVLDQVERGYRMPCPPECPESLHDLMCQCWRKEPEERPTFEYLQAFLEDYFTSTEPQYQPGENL
PIM-1, sequence (P11309 whole entry): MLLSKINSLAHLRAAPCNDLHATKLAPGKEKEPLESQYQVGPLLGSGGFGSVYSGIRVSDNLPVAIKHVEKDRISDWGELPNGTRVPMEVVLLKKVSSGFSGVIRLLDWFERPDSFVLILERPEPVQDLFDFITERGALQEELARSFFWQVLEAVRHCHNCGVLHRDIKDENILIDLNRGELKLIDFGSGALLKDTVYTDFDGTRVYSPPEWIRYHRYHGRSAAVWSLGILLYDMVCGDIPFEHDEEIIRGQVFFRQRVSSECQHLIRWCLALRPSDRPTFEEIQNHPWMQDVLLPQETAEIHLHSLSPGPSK
T1 sequence (P49841 whole entry, the tested form may be a part): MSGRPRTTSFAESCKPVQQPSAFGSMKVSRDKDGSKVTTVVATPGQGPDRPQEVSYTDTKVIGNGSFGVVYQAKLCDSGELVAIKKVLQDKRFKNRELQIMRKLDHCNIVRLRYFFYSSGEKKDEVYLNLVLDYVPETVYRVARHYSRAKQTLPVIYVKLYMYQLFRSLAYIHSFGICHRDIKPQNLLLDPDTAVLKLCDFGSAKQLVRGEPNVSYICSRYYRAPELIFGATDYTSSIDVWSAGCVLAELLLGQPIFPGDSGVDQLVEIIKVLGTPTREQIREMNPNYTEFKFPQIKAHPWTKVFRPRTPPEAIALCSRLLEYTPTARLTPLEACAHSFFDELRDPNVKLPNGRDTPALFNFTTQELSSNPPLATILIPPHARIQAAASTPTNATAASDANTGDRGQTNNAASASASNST

| Compound | IC50 (PIM-1) [nM] | Ki (GSK-3β (AA 1-420)) [nM] | other results |
| --- | --- | --- | --- |
| FC(F)(F)c1cccc(-c2nnc3ccc(NC4CC4)nn23)c1 [Compound I-18] | < 1000 | < 2000 |  |
| Fc1cccc(-c2nnc3ccc(NC4CC4)nn23)c1 [Compound I-20] | < 1000 |  |  |
| Fc1ccc(-c2nnc3ccc(NC4CC4)nn23)cc1 [Compound I-21] | < 1000 | < 2000 |  |
| COc1ccc(-c2nnc3ccc(NC4CC4)nn23)cc1 [Compound I-24] | < 1000 |  |  |
| FC(F)(F)c1cccc(-c2nnc3ccc(NC4CCC4)nn23)c1 [Compound I-25] | < 1000 |  | Ki (human Src kinase): < 5 µM |
| FC(F)(F)c1cccc(-c2nnc3ccc(NC4CCCCC4)nn23)c1 [Compound I-26] |  |  | Ki (human Src kinase): < 5 µM |
| COc1cccc(-c2nnc3ccc(NC4CC4)nn23)c1 [Compound I-28] | < 1000 |  | Ki (human Src kinase): < 5 µM |
| COc1ccccc1-c1nnc2ccc(NC3CC3)nn12 [Compound I-29] |  |  | Ki (human Src kinase): < 5 µM |
| N#Cc1ccc(-c2nnc3ccc(NCC(N)=O)nn23)cc1 [Compound I-37] |  | < 2000 |  |
| COc1ccc(-c2nnc3ccc(NCC(N)=O)nn23)cc1 [Compound I-38] |  | < 2000 |  |
| COc1cccc(-c2nnc3ccc(NCC(N)=O)nn23)c1 [Compound I-39] |  | < 2000 |  |
| N#Cc1cccc(-c2nnc3ccc(NCC(N)=O)nn23)c1 [Compound I-40] |  | < 2000 |  |
| COc1ccccc1Nc1nnc2ccc(Sc3ccccc3)nn12 [Compound I-62] |  | < 2000 |  |
| COc1ccc(Nc2nnc3ccc(OC)nn23)cc1 [Compound I-66] |  | < 2000 |  |
| COc1ccc2nnc(Nc3ccccc3OC)n2n1 [Compound I-68] |  |  | Ki (CDK-2/Cyclin A): < 2000 nM |
| COc1ccc2nnc(Nc3ccc(C#N)cc3)n2n1 [Compound I-73] |  |  | Ki (CDK-2/Cyclin A): < 2000 nM |
| COc1ccc(Nc2nnc3ccc(OC)nn23)c(OC)c1 [Compound I-85] |  | < 2000 |  |
| COc1ccc2nnc(Nc3cc(OC)c(OC)c(OC)c3)n2n1 [Compound I-86] |  | < 2000 |  |
